# From PubChem BioAssay (NCI)
#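 Test compounds were applied to cells in 96-well plates for 48 hours at 5 doses. The concentration for 50% growth inhibition is given as GI50. TGI is the concentration that stops growth completely.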
# Legend:
# Test in all cases: inhibition of tumour cell growth, NCI panel, 48 h
# 786-0 renal = test system: 786-0 renal
# A498 renal = test system: A498 renal
# A549 NSCLC = test system: A549 NSCLC
# ACHN renal = test system: ACHN renal
# BT-549 breast = test system: BT-549 breast
# CAKI-1 renal = test system: CAKI-1 renal
# CCRF-CEM leukemia = test system: CCRF-CEM leukemia
# COLO 205 colon = test system: COLO 205 colon
# DU-145 prostate = test system: DU-145 prostate
# EKVX NSCLC = test system: EKVX NSCLC
# HCC-2998 colon = test system: HCC-2998 colon
# HCT-116 colon = test system: HCT-116 colon
# HCT-15 colon = test system: HCT-15 colon
# HL-60(TB) leukemia = test system: HL-60(TB) leukemia
# HOP-62 NSCLC = test system: HOP-62 NSCLC
# HOP-92 NSCLC = test system: HOP-92 NSCLC
# HS 578T breast = test system: HS 578T breast
# HT29 colon = test system: HT29 colon
# IGROV1 ovarian = test system: IGROV1 ovarian
# K-562 leukemia = test system: K-562 leukemia
# KM12 colon = test system: KM12 colon
# LOX IMVI melanoma = test system: LOX IMVI melanoma
# M14 melanoma = test system: M14 melanoma
# MALME-3M melanoma = test system: MALME-3M melanoma
# MCF7 breast = test system: MCF7 breast
# MDA-MB-231 breast = test system: MDA-MB-231 breast
# MDA-MB-435 = test system: MDA-MB-435
# MDA-MB-468 breast = test system: MDA-MB-468 breast
# MOLT-4 leukemia = test system: MOLT-4 leukemia
# NCI-H226 lung = test system: NCI-H226 lung
# NCI-H23 lung = test system: NCI-H23 lung
# NCI-H460 lung = test system: NCI-H460 lung
# NCI-H522 lung = test system: NCI-H522 lung
# NCI/ADR-RES ovarian = test system: NCI/ADR-RES ovarian
# OVCAR-3 ovarian = test system: OVCAR-3 ovarian
# OVCAR-4 ovarian = test system: OVCAR-4 ovarian
# OVCAR-5 ovarian = test system: OVCAR-5 ovarian
# OVCAR-8 ovarian = test system: OVCAR-8 ovarian
# PC-3 prostate = test system: PC-3 prostate
# RPMI-8226 leukemia = test system: RPMI-8226 leukemia
# RXF 393 renal = test system: RXF 393 renal
# SF-268 CNS = test system: SF-268 CNS
# SF-295 CNS = test system: SF-295 CNS
# SF-539 CNS = test system: SF-539 CNS
# SK-MEL-2 melanoma = test system: SK-MEL-2 melanoma
# SK-MEL-28 melanoma = test system: SK-MEL-28 melanoma
# SK-MEL-5 melanoma = test system: SK-MEL-5 melanoma
# SK-OV-3 ovarian = test system: SK-OV-3 ovarian
# SN12C renal = test system: SN12C renal
# SNB-19 CNS = test system: SNB-19 CNS
# SNB-75 CNS = test system: SNB-75 CNS
# SR leukemia = test system: SR leukemia
# SW-620 colon = test system: SW-620 colon
# T-47D breast = test system: T-47D breast
# TK-10 renal = test system: TK-10 renal
# U251 CNS = test system: U251 CNS
# UACC-257 melanoma = test system: UACC-257 melanoma
# UACC-62 melanoma = test system: UACC-62 melanoma
# UO-31 renal = test system: UO-31 renal
smiles,measurement,setting,value
O=C(N/N=C/c1ccsc1)c1[nH]c2ccc(Br)cc2c1-c1ccccc1,GI50,786-0 renal,509 nM
same,TGI,786-0 renal,17700 nM
same,GI50,A498 renal,19500 nM
same,TGI,A498 renal,46500 nM
same,GI50,A549 NSCLC,460 nM
same,TGI,A549 NSCLC,> 100000 nM
same,GI50,ACHN renal,585 nM
same,TGI,ACHN renal,27700 nM
same,GI50,BT-549 breast,317 nM
same,TGI,BT-549 breast,1950 nM
same,GI50,CAKI-1 renal,315 nM
same,TGI,CAKI-1 renal,25000 nM
same,GI50,CCRF-CEM leukemia,228 nM
same,TGI,CCRF-CEM leukemia,21700 nM
same,GI50,COLO 205 colon,353 nM
same,TGI,COLO 205 colon,1970 nM
same,GI50,DU-145 prostate,435 nM
same,TGI,DU-145 prostate,32900 nM
same,GI50,EKVX NSCLC,872 nM
same,TGI,EKVX NSCLC,29300 nM
same,GI50,HCC-2998 colon,399 nM
same,TGI,HCC-2998 colon,13000 nM
same,GI50,HCT-116 colon,190 nM
same,TGI,HCT-116 colon,4410 nM
same,GI50,HCT-15 colon,256 nM
same,TGI,HCT-15 colon,12800 nM
same,GI50,HL-60(TB) leukemia,199 nM
same,TGI,HL-60(TB) leukemia,656 nM
same,GI50,HOP-62 NSCLC,512 nM
same,TGI,HOP-62 NSCLC,18100 nM
same,GI50,HOP-92 NSCLC,2440 nM
same,TGI,HOP-92 NSCLC,25000 nM
same,GI50,HS 578T breast,202 nM
same,TGI,HS 578T breast,13200 nM
same,GI50,HT29 colon,272 nM
same,TGI,HT29 colon,4750 nM
same,GI50,IGROV1 ovarian,600 nM
same,TGI,IGROV1 ovarian,15600 nM
same,GI50,K-562 leukemia,103 nM
same,TGI,K-562 leukemia,> 44000 nM
same,GI50,KM12 colon,327 nM
same,TGI,KM12 colon,14100 nM
same,GI50,LOX IMVI melanoma,217 nM
same,TGI,LOX IMVI melanoma,13300 nM
same,GI50,M14 melanoma,267 nM
same,TGI,M14 melanoma,13100 nM
same,GI50,MALME-3M melanoma,6990 nM
same,TGI,MALME-3M melanoma,26100 nM
same,GI50,MCF7 breast,132 nM
same,TGI,MCF7 breast,13400 nM
same,GI50,MDA-MB-231 breast,792 nM
same,TGI,MDA-MB-231 breast,13100 nM
same,GI50,MDA-MB-435,76.4 nM
same,TGI,MDA-MB-435,525 nM
same,GI50,MDA-MB-468 breast,255 nM
same,TGI,MDA-MB-468 breast,3890 nM
same,GI50,MOLT-4 leukemia,386 nM
same,TGI,MOLT-4 leukemia,18400 nM
same,GI50,NCI-H226 lung,1750 nM
same,TGI,NCI-H226 lung,27600 nM
same,GI50,NCI-H23 lung,696 nM
same,TGI,NCI-H23 lung,18900 nM
same,GI50,NCI-H460 lung,156 nM
same,TGI,NCI-H460 lung,10600 nM
same,GI50,NCI-H522 lung,163 nM
same,TGI,NCI-H522 lung,699 nM
same,GI50,NCI/ADR-RES ovarian,173 nM
same,TGI,NCI/ADR-RES ovarian,549 nM
same,GI50,OVCAR-3 ovarian,202 nM
same,TGI,OVCAR-3 ovarian,12600 nM
same,GI50,OVCAR-4 ovarian,6100 nM
same,TGI,OVCAR-4 ovarian,> 66600 nM
same,GI50,OVCAR-5 ovarian,563 nM
same,TGI,OVCAR-5 ovarian,22500 nM
same,GI50,OVCAR-8 ovarian,313 nM
same,TGI,OVCAR-8 ovarian,10300 nM
same,GI50,PC-3 prostate,612 nM
same,TGI,PC-3 prostate,24000 nM
same,GI50,RPMI-8226 leukemia,236 nM
same,TGI,RPMI-8226 leukemia,16600 nM
same,GI50,RXF 393 renal,287 nM
same,TGI,RXF 393 renal,26700 nM
same,GI50,SF-268 CNS,817 nM
same,TGI,SF-268 CNS,17900 nM
same,GI50,SF-295 CNS,189 nM
same,TGI,SF-295 CNS,13800 nM
same,GI50,SF-539 CNS,190 nM
same,TGI,SF-539 CNS,943 nM
same,GI50,SK-MEL-2 melanoma,764 nM
same,TGI,SK-MEL-2 melanoma,20000 nM
same,GI50,SK-MEL-28 melanoma,4190 nM
same,TGI,SK-MEL-28 melanoma,22600 nM
same,GI50,SK-MEL-5 melanoma,260 nM
same,TGI,SK-MEL-5 melanoma,1830 nM
same,GI50,SK-OV-3 ovarian,2050 nM
same,TGI,SK-OV-3 ovarian,27200 nM
same,GI50,SN12C renal,473 nM
same,TGI,SN12C renal,12500 nM
same,GI50,SNB-19 CNS,1840 nM
same,TGI,SNB-19 CNS,66400 nM
same,GI50,SNB-75 CNS,234 nM
same,TGI,SNB-75 CNS,21500 nM
same,GI50,SR leukemia,255 nM
same,TGI,SR leukemia,63500 nM
same,GI50,SW-620 colon,204 nM
same,TGI,SW-620 colon,19100 nM
same,GI50,T-47D breast,3120 nM
same,TGI,T-47D breast,48500 nM
same,GI50,TK-10 renal,13500 nM
same,TGI,TK-10 renal,85000 nM
same,GI50,U251 CNS,724 nM
same,TGI,U251 CNS,18900 nM
same,GI50,UACC-257 melanoma,6930 nM
same,TGI,UACC-257 melanoma,41300 nM
same,GI50,UACC-62 melanoma,299 nM
same,TGI,UACC-62 melanoma,16000 nM
same,GI50,UO-31 renal,578 nM
same,TGI,UO-31 renal,24200 nM
